From ChEMBL document CHEMBL4819153, “l-Hypaphorine and d-hypaphorine: Specific antiacetylcholinesterase activity in rat brain tissue” (Bioorg Med Chem Lett, 2021)

Columns and labels:
Acetylcholinesterase [1] = target: T1, Acetylcholinesterase (Rattus norvegicus, UniProt P37136); assay: Inhibition of AChE in rat brain Hippocampus; type: tissue-based
T1 sequence (P37136 whole entry): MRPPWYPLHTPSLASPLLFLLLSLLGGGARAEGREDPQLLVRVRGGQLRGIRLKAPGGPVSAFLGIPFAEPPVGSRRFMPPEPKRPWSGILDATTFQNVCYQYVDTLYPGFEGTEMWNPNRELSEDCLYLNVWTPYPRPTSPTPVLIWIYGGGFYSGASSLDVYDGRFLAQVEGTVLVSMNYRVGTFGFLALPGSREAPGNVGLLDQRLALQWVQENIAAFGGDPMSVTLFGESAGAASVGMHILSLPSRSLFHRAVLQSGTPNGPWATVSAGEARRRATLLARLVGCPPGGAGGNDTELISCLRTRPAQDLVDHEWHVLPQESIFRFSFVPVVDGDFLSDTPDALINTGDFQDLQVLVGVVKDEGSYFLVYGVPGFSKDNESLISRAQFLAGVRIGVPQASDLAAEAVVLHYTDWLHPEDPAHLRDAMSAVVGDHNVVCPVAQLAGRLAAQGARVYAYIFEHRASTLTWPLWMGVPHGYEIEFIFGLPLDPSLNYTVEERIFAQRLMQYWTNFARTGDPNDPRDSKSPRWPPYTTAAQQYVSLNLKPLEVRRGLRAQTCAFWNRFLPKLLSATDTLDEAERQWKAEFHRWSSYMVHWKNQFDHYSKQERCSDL

Acetylcholinesterase [2] = target: T1, Acetylcholinesterase; assay: Inhibition of AChE in rat brain Cerebellum; type: tissue-based
HaCaT [3] = assay: Cytotoxicity against human HaCaT cells assessed as reduction in cell viability upto 10000 uM incubated for 48 hrs relative to control; type: cell-based
Acetylcholinesterase [4] = target: T1, Acetylcholinesterase; assay: Inhibition of AChE in rat brain Striatum; type: tissue-based
Acetylcholinesterase [5] = target: T1, Acetylcholinesterase; assay: Inhibition of AChE in rat brain cortex; type: tissue-based
[6] = Solubility in water; type: physicochemical; details: buffer
HaCaT [7] = assay: Cytotoxicity against human HaCaT cells assessed as reduction in cell viability upto 10000 uM incubated for 24 hrs relative to control; type: cell-based
HaCaT [8] = assay: Cytotoxicity against human HaCaT cells assessed as reduction in cell viability incubated for 48 hrs relative to control; type: cell-based
HaCaT [9] = assay: Cytotoxicity against human HaCaT cells assessed as reduction in cell viability incubated for 24 hrs relative to control; type: cell-based
HaCaT [10] = assay: Cytotoxicity against human HaCaT cells assessed as reduction in cell viability at 10000 uM incubated for 24 hrs relative to control; type: cell-based
HaCaT [11] = assay: Cytotoxicity against human HaCaT cells assessed as reduction in cell viability at 5000 to 10000 uM incubated for 48 hrs relative to control; type: cell-based; details: dose 5000-10000 µM

Compound	IC50 (Acetylcholinesterase [1])	IC50 (Acetylcholinesterase [2])	Activity (HaCaT [3])	IC50 (Acetylcholinesterase [4])	IC50 (Acetylcholinesterase [5])	solubility [6]	Activity (HaCaT [7])	Activity (HaCaT [8])	Activity (HaCaT [9])	Activity (HaCaT [10])	Activity (HaCaT [11])
C[N+](C)(C)[C@@H](Cc1c[nH]c2ccccc12)C(=O)O.[Cl-]	> 1000 µM	18.6 µM	Non-Toxic	> 1000 µM	> 1000 µM	Soluble	Non-Toxic				
C[N+](C)(C)[C@H](Cc1c[nH]c2ccccc12)C(=O)O.[Cl-]	0.32 µM	19.1 µM	Non-Toxic	34.6 µM	0.24 µM	Soluble	Non-Toxic				
CN(C)/N=N/c1[nH]cnc1C(N)=O [DACARBAZINE]								44.46%	29.74%		
CN(C)C(=O)Oc1cccc([N+](C)(C)C)c1.[Br-] [NEOSTIGMINE BROMIDE]	0.07 µM	37.2 µM		3.17 µM	0.65 µM					Toxic	Toxic
